Experimental data published in patent US20240158446A1, “CYCLIC COMPOUND HAVING SELECTIVE INHIBITORY ACTION ON KRAS OVER HRAS AND NRAS” (CHUGAI SEIYAKU KABUSHIKI KAISHA, priority 2021, published 2024).
Where a SMILES comes first, the peptide text is derived from it. Bridges are numbered along the chain shown (N, C = ends). [ ]: non-standard residue; d: D form. The star is where a group is joined. hPhe(3-Cl-4-CF3) = N[C@@H](CCc1ccc(C(F)(F)F)c(Cl)c1)C(=O)O; NPrPhe(4-CF3) = CCCN[C@@H](Cc1ccc(C(F)(F)F)cc1)C(=O)O; NMeChg = CN[C@H](C(=O)O)C1CCCCC1; NMeD = CN[C@@H](CC(=O)O)C(=O)O; NMeL = CN[C@@H](CC(C)C)C(=O)O; Morpholide = C1CN(*)CCO1; Ac4c = NC1(C(=O)O)CCC1; Sar = CNCC(=O)O

What was measured:
[1] = test system: human lung cancer strain NCI-H441; test: cells; settings: NCI-H441, 96 h, read-out: NCI-H441 IC50 (nM), NCI-H441 cell proliferation, 4 days, CellTiter-Glo;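 also: cell proliferation inhibition after four days measured by CellTiter-Glo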
[2] = biological target: GDP-bound KRAS wild-type protein (Homo sapiens, UniProt P01116); test: Binding to KRAS by surface plasmon resonance (SPR), Single Cycle Kinetics; settings: SPR, Single Cycle Kinetics, GDP-bound KRAS wild-type protein; read-out: KRAS KD
[3] = biological target: GDP-bound HRAS wild-type protein (Homo sapiens, UniProt P01112); test: Binding to HRAS by surface plasmon resonance (SPR), Single Cycle Kinetics; settings: ratio of KD for GDP-bound HRAS wild-type protein to KD for KRAS, SPR
[4] = biological target: GDP-bound NRAS wild-type protein (Homo sapiens, UniProt P01111); test: Binding to NRAS by surface plasmon resonance (SPR), Single Cycle Kinetics; settings: ratio of KD for GDP-bound NRAS wild-type protein to KD for KRAS, SPR
Sequence of GDP-bound NRAS wild-type protein (P01111 whole entry): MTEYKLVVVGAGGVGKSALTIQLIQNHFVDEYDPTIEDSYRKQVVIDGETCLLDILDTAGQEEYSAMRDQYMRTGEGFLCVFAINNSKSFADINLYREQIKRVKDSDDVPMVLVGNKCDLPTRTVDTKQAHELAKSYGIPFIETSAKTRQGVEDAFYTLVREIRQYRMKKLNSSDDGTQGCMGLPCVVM

Sequence of GDP-bound HRAS wild-type protein (P01112 whole entry): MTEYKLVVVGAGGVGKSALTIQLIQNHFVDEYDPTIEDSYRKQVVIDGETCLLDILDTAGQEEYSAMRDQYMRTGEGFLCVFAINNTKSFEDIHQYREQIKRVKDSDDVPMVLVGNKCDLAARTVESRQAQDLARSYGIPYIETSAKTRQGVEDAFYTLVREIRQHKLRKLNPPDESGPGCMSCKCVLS
Sequence of GDP-bound KRAS wild-type protein (P01116 whole entry): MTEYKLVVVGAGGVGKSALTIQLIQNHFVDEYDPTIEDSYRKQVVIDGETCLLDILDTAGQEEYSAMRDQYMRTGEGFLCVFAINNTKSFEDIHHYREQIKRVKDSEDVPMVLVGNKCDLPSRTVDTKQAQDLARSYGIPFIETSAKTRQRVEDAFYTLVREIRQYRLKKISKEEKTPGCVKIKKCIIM

Compound | IC50 [1] | Kd [2] | HRAS/KRAS (KD ratio) [3] | NRAS/KRAS (KD ratio) [4]
CCO[C@@H]1C[C@H]2C(=O)NC3(CC(C)(C)C3)C(=O)N(CC)[C@@H](C3CCCC3)C(=O)N(C)[C@H](C(=O)N(C)C)CC(=O)N(C)[C@@H](CC)C(=O)N[C@@H]([C@@H](C)CC)C(=O)N(C)CC(=O)N(C)[C@H]3C/C=C\CCN(C3=O)[C@@H](Cc3ccc(C(F)(F)F)cc3)C(=O)N(C)CC(=O)N[C@@H](CCc3cc(F)c(C(F)(F)F)c(F)c3)C(=O)N2C1 [PP1913] | 44 nM | 0.37 nM | A (a compound having 10 or more and less than 20 is denoted as A) | A (a compound having 10 or more and less than 20 is denoted as A)
CCO[C@@H]1C[C@H]2C(=O)NC3(CC(C)(C)C3)C(=O)N(C)[C@@H](C3CCCC3)C(=O)N(C)[C@H](C(=O)N(C)CC)CC(=O)N(C)[C@@H](C3CC3)C(=O)N[C@@H]([C@@H](C)CC)C(=O)N(C)CC(=O)N(C)[C@H]3C/C=C\CCN(C3=O)[C@@H](Cc3ccc(C(F)(F)F)cc3)C(=O)N(C)CC(=O)N[C@@H](CCc3ccc(C(F)(F)F)c(OC)c3)C(=O)N2C1 [PP1981] | 20.7 nM | 0.1 nM | A (a compound having 10 or more and less than 20 is denoted as A) | A (a compound having 10 or more and less than 20 is denoted as A)
CCO[C@@H]1C[C@H]2C(=O)NC3(CC(C)(C)C3)C(=O)N(C)[C@@H](C3CCCC3)C(=O)N(CC)[C@H](C(=O)N(C)C)CC(=O)N(C)[C@@H](CC)C(=O)N[C@@H]([C@@H](C)CC)C(=O)N(C)CC(=O)N(C)[C@H]3C/C=C\CCN(C3=O)[C@@H](Cc3ccc(C(F)(F)F)cc3)C(=O)N(C)CC(=O)N[C@@H](CCc3cc(F)c(C(F)(F)F)c(F)c3)C(=O)N2C1 [PP1768] | 4.9 nM | 0.32 nM | A (a compound having 10 or more and less than 20 is denoted as A) | A (a compound having 10 or more and less than 20 is denoted as A)
CCO[C@@H]1C[C@H]2C(=O)NC3(CCC3)C(=O)N(C)[C@@H](C(CC)CC)C(=O)N(C)[C@H](CC)CC(=O)N(C)[C@@H](CC3CC3)C(=O)N[C@@H]([C@@H](C)CC)C(=O)N(C)CC(=O)N(C)[C@H]3C/C=C\CCN(C3=O)[C@@H](Cc3ccc(C(F)(F)F)cc3)C(=O)N(C)CC(=O)N[C@@H](CCc3cc(F)c(C(F)(F)F)c(F)c3)C(=O)N2C1 [PP1630] | 144 nM | 1.8 nM | A (a compound having 10 or more and less than 20 is denoted as A) | A (a compound having 10 or more and less than 20 is denoted as A)
CC[C@H](C)[C@@H]1NC(=O)[C@H](CC)N(C)C(=O)C[C@@H](C(=O)N(C)C)N(C)C(=O)[C@H](C2CCCC2)N(C)C(=O)C2(CCCC2)N(C)C(=O)[C@@H]2CCCN2C(=O)[C@H](CCc2cc(F)c(C(F)(F)F)c(F)c2)NC(=O)CN(C)C(=O)[C@H](Cc2ccc(C(F)(F)F)cc2)N2CC/C=C\C[C@@H](C2=O)N(C)C(=O)CN(C)C1=O [PP1805] | 7 nM | 0.071 nM | A (a compound having 10 or more and less than 20 is denoted as A) | A (a compound having 10 or more and less than 20 is denoted as A)
CCO[C@@H]1C[C@H]2C(=O)NC3(CC(F)(F)C3)C(=O)N(C)[C@@H](C3CCCC3)C(=O)N(C)[C@H](C(=O)N(C)CC)CC(=O)N(C)[C@@H](CC3CC3)C(=O)N[C@@H]([C@@H](C)CC)C(=O)N(C)CC(=O)N(C)[C@H]3C/C=C\CCN(C3=O)[C@@H](Cc3ccc(C(F)(F)F)cc3)C(=O)N(C)CC(=O)N[C@@H](CCc3cc(F)c(C(F)(F)F)c(F)c3)C(=O)N2C1 [PP1738] | 5.1 nM | 0.071 nM | A (a compound having 10 or more and less than 20 is denoted as A) | AA (a compound having 20 or more is denoted as AA)
CCO[C@@H]1C[C@H]2C(=O)N(C)C3(CCC3)C(=O)N(C)[C@@H](C3CCCC3)C(=O)N(C)[C@H](C(=O)N(C)C)CC(=O)N(C)[C@@H](CC)C(=O)N[C@@H]([C@@H](C)CC)C(=O)N(C)CC(=O)N(C)[C@H]3C/C=C\CCN(C3=O)[C@@H](Cc3ccc(C)cc3)C(=O)N(C)CC(=O)N[C@@H](CCc3cc(F)c(C(F)(F)F)c(F)c3)C(=O)N2C1 [PP1781] | 2.1 nM | 0.024 nM | B (a compound having 3 or more and less than 10 is denoted as B) | A (a compound having 10 or more and less than 20 is denoted as A)
CCC[C@H]1C(=O)N[C@@H]([C@@H](C)CC)C(=O)N(C)CC(=O)N(C)[C@H]2C/C=C\CCN(C2=O)[C@@H](Cc2ccc(C)cc2)C(=O)N(C)CC(=O)N[C@@H](CCc2cc(F)c(C(F)(F)F)c(F)c2)C(=O)N2C[C@H](C)C[C@H]2C(=O)N(C)C2(CCC2)C(=O)N(C)[C@@H](C2CCCC2)C(=O)N(C)[C@H](C(=O)N(C)C)CC(=O)N1C [PP1799] | 7.6 nM | 0.068 nM | B (a compound having 3 or more and less than 10 is denoted as B) | B (a compound having 3 or more and less than 10 is denoted as B)
CCO[C@@H]1C[C@H]2C(=O)NC3(CC(C)(C)C3)C(=O)N(C)[C@@H](C3CCCC3)C(=O)N(CC)[C@H](C(=O)N(C)C)CC(=O)N(C)[C@@H](CC(C)C)C(=O)N[C@@H]([C@@H](C)CC)C(=O)NCC(=O)N(C)[C@H]3C/C=C\CCN(C3=O)[C@@H](Cc3ccc(C(F)(F)F)cc3)C(=O)N(C)CC(=O)N[C@@H](CCc3cc(F)c(C(F)(F)F)c(F)c3)C(=O)N2C1 [PP1773] | 39.9 nM | 0.53 nM | A (a compound having 10 or more and less than 20 is denoted as A) | A (a compound having 10 or more and less than 20 is denoted as A)

More lines, main results first:

IC50 [1] | Kd [2] | Compound | HRAS/KRAS (KD ratio) [3] | NRAS/KRAS (KD ratio) [4]
107 nM | 1.1 nM | CC[C@H](C)[C@@H]1NC(=O)[C@H](CC)N(C)C(=O)C[C@@H](C(=O)N(C)C)N(C)C(=O)[C@H](C2CCCC2)N(C)C(=O)C2(CCC2)NC(=O)[C@@H]2CCCN2C(=O)[C@H](CCc2cc(C)c(Cl)c(C)c2)NC(=O)CN(C)C(=O)[C@H](Cc2ccc(C(F)(F)F)cc2)N2CC/C=C\C[C@@H](C2=O)N(C)C(=O)CN(C)C1=O [PP1822] | B (a compound having 3 or more and less than 10 is denoted as B) | A (a compound having 10 or more and less than 20 is denoted as A)
16.8 nM | 0.084 nM | CCO[C@@H]1C[C@H]2C(=O)NC3(CCC3)C(=O)N(C)[C@@H](C3CCCC3)C(=O)N(C)[C@H](C(=O)N(C)C)CC(=O)N(CC)[C@@H](CC(C)C)C(=O)N[C@@H]([C@@H](C)CC)C(=O)N(C)CC(=O)N(C)[C@H]3C/C=C\CCN(C3=O)[C@@H](Cc3ccc(C(F)(F)F)cc3)C(=O)N(C)CC(=O)N[C@@H](CCc3cc(F)c(C(F)(F)F)c(F)c3)C(=O)N2C1 [PP1765] | A (a compound having 10 or more and less than 20 is denoted as A) | A (a compound having 10 or more and less than 20 is denoted as A)
17.9 nM | 0.34 nM | CCC[C@H]1C(=O)N[C@@H]([C@@H](C)CC)C(=O)N(CCC)CC(=O)N(C)[C@H]2C/C=C\CCN(C2=O)[C@@H](Cc2ccc(C(F)(F)F)cc2)C(=O)N(C)CC(=O)N[C@@H](CCc2cc(F)c(C(F)(F)F)c(F)c2)C(=O)N2C[C@H](OCC)C[C@H]2C(=O)NC2(CCC2)C(=O)N(C)[C@@H](C2CCCC2)C(=O)N(C)[C@H](C(=O)N(C)C)CC(=O)N1C [PP1767] | B (a compound having 3 or more and less than 10 is denoted as B) | A (a compound having 10 or more and less than 20 is denoted as A)
88.8 nM | 0.13 nM | CC[C@H](C)[C@@H]1NC(=O)[C@H](CC2CC2)N(C)C(=O)C[C@@H](C(=O)N(C)C)N(C)C(=O)[C@H](C2CCCC2)N(C)C(=O)C2(CCC2)NC(=O)[C@@H]2C[C@@H](C)CN2C(=O)[C@H](CCc2ccc(C(F)(F)F)c(OC)c2)NC(=O)CN(C)C(=O)[C@H](Cc2ccc(C)cc2)N2CC/C=C\C[C@@H](C2=O)N(C)C(=O)CN(C)C1=O [PP1863] | A (a compound having 10 or more and less than 20 is denoted as A) | A (a compound having 10 or more and less than 20 is denoted as A)
5.5 nM | 0.054 nM | CCCN(C)C(=O)[C@@H]1CC(=O)N(C)[C@@H](CC2CC2)C(=O)N[C@@H]([C@@H](C)CC)C(=O)N(C)CC(=O)N(C)[C@H]2C/C=C\CCN(C2=O)[C@@H](Cc2ccc(C(F)(F)F)cc2)C(=O)N(C)CC(=O)N[C@@H](CCc2cc(F)c(C(F)(F)F)c(F)c2)C(=O)N2C[C@H](OCC)C[C@H]2C(=O)NC2(CC(F)(F)C2)C(=O)N(C)[C@@H](C2CCCC2)C(=O)N1C [PP1739] | AA (a compound having 20 or more is denoted as AA) | AA (a compound having 20 or more is denoted as AA)
18.4 nM | 0.25 nM | CCCN1C(=O)CN(C)C(=O)CN(C)C(=O)[C@H]([C@@H](C)CC)NC(=O)[C@H](CC(C)C)N(C)C(=O)C[C@@H](C(=O)N2CCOCC2)N(C)C(=O)[C@H](C2CCCCC2)N(C)C(=O)C2(CCC2)NC(=O)[C@@H]2CCCN2C(=O)[C@H](CCc2ccc(C(F)(F)F)c(Cl)c2)NC(=O)CN(C)C(=O)[C@@H]1Cc1ccc(C(F)(F)F)cc1 [PP1928] ([NMeL]I[Sar][Sar][NPrPhe(4-CF3)][Sar][hPhe(3-Cl-4-CF3)]P[Ac4c][NMeChg][NMeD]-Morpholide; lactam N-11) | B (a compound having 3 or more and less than 10 is denoted as B) | B (a compound having 3 or more and less than 10 is denoted as B)
